Assay results published in patent US20230321123A1, “INHIBITORS OF PSEUDOMONAS AERUGINOSA VIRULENCE FACTOR LasB” (Helmholtz-Zentrum Für Infektionsforschung GmbH, priority 2020, published 2023).
Read-outs that look alike come from different tables or passages of the source.

What was measured:
ADAM17 (TACE) = ADAM17 (TACE) (Homo sapiens, UniProt P78536); assay: Selectivity against human off-targets: ADAM17 (TACE); type: biochemical; details: for IC50: read-out: IC50 ADAM17 (TACE)
Cytotoxicity HepG2 = type: cell-based; details: human
Experimental: (§1) The compounds of examples 1 and 5 were not toxic against the cell lines HepG2, HEK293 and A549 (Table 5). Additionally, the inhibitory effect against P. aeruginosa PA14 was evaluated to exclude an antibacterial effect of the compounds of the present invention. This is important as it was the aim to target virulence and not viability of the bacteria. […]

MMP-3 = MMP-3 (Homo sapiens, UniProt P08254); assay: Selectivity against human off-targets: MMP-3; type: biochemical; details: at 100 μM; read-out: Inhibition [%] MMP-3
Sequence of MMP-3 (P08254 100-477): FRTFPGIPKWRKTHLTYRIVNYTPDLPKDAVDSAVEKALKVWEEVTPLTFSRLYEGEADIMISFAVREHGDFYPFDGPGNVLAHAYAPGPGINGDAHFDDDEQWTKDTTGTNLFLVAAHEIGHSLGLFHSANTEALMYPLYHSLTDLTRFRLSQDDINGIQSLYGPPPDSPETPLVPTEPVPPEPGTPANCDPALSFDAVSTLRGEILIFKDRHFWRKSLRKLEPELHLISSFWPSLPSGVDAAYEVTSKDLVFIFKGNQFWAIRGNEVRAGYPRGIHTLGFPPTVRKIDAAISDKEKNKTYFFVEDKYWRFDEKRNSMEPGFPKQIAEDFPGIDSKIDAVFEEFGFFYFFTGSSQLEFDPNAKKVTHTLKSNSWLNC
Text: (§2) The inhibition of zinc-containing human enzymes is described frequently for LasB inhibitors and poses a serious difficulty in the development of selective compounds. Particularly, the inhibition of matrix metalloproteases (MMPs) should be avoided. To further investigate this issue, three derivatives (the compounds of examples 1, 5 and 8) have been tested for their selectivity against several human off-targets, including six MMPs, ADAM17 (TACE), HDAC-3 and HDAC-8 (Table 4). The selectivity of the compounds is particularly high for MMPs and HDACs, whereas the inhibition of ADAM17 was considerably stronger.

Cytotoxicity HEK293 = type: cell-based; details: human
Experimental: as §1

P. aeruginosa PA14 = assay: PA14 inhibition (MIC, antibacterial effect); type: cell-based; details: Pseudomonas aeruginosa, PA14; read-out: MIC PA14
Experimental: as §1

LasB = LasB (Pseudomonas aeruginosa, UniProt Q02RJ6); assay: biochemical; design: species or system P. aeruginosa
Sequence of LasB (Q02RJ6 198-498): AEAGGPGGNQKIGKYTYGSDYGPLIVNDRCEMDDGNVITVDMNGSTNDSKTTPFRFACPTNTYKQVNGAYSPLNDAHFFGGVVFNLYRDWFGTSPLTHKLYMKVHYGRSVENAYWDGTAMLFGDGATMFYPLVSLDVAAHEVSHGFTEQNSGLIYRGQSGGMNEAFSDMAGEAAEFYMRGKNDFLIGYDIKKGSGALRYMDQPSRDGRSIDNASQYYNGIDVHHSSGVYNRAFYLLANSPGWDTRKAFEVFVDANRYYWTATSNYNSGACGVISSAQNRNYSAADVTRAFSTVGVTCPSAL

MMP-1 = target: T1, MMP-1 (Homo sapiens, UniProt P03956); assay: Selectivity against human off-targets: MMP-1; type: biochemical; details: at 100 μM; read-out: Inhibition [%] MMP-1
T1 sequence (P03956 100-469): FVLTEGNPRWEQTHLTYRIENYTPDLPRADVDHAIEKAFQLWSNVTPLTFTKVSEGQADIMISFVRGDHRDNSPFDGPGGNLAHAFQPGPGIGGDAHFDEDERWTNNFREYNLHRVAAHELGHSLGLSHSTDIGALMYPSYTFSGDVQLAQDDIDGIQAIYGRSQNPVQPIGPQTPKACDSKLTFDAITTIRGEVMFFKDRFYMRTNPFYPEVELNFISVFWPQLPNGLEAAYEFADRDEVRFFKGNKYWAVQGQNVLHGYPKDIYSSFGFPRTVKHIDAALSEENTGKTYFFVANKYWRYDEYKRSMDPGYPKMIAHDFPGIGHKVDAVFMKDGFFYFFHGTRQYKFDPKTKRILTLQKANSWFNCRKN
Text: as §2

MMP-2 = target: T2, MMP-2 (Homo sapiens, UniProt P08253); assay: Selectivity against human off-targets: MMP-2; type: biochemical; details: at 100 μM; read-out: Inhibition [%] MMP-2
T2 sequence (P08253 110-660): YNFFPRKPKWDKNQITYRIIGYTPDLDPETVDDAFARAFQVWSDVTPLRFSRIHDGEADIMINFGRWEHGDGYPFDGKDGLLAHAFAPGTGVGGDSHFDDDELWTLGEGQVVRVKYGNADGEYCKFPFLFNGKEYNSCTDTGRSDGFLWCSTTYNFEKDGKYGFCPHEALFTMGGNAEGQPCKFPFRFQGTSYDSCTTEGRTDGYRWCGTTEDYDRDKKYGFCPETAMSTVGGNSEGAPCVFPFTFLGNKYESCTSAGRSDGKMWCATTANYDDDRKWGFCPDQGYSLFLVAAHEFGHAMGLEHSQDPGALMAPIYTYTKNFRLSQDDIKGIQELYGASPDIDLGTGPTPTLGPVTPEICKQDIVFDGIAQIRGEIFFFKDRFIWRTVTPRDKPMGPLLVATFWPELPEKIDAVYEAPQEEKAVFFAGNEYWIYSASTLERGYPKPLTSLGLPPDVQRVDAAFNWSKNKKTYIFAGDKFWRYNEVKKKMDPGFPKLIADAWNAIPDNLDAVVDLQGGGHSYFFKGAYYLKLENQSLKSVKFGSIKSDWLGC
Text: as §2

Cytotoxicity A549 = type: cell-based; details: human
Experimental: as §1

MMP-8 = MMP-8 (Homo sapiens, UniProt P22894); assay: Selectivity against human off-targets: MMP-8; type: biochemical; details: at 100 μM; read-out: Inhibition [%] MMP-8
Sequence of MMP-8 (P22894 101-467): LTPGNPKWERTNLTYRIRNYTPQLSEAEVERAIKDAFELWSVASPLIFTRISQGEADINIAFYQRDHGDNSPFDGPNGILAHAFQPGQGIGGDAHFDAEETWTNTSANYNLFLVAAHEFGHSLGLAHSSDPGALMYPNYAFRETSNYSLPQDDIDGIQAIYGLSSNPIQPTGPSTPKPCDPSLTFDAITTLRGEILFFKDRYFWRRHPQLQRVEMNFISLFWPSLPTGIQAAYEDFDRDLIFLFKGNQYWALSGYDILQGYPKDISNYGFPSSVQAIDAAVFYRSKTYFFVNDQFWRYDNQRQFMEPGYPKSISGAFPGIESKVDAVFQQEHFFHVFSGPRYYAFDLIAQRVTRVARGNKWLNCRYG
Text: as §2

Sequence of ADAM17 (TACE) (P78536 215-824): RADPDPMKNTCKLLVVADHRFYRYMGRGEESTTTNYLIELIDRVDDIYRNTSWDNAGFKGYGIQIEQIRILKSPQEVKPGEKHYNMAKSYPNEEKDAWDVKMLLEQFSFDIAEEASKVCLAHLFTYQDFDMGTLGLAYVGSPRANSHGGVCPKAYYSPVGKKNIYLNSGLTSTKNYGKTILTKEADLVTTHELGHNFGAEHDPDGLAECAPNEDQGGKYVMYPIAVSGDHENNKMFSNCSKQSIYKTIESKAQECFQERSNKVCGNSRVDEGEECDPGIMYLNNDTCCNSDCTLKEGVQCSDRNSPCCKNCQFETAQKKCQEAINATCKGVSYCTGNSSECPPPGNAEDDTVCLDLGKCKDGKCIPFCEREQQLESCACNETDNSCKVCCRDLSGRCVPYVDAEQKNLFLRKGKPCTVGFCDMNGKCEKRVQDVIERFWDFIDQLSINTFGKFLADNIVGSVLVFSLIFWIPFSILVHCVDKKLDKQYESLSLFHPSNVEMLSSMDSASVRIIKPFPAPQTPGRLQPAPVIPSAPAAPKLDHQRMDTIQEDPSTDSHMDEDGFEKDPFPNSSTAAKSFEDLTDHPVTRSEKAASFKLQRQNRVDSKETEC

SMILES | inhibition at 100 µM (MMP-3) [%] | MIC (P. aeruginosa PA14) [µM] | IC50 (LasB; IC50 against LasB) [nM] | inhibition at 100 µM (MMP-1) [%] | inhibition at 100 µM (MMP-2) [%] | further results
CC(C)CC(C(=O)N[C@H](C(=O)Nc1ccc(Cl)c(Cl)c1)C(C)C)P(=O)(O)O (mixture of isomers) [Example 152, (1-(((S)-1-((3,4-Dichlorophenyl)amino)-3-methyl-1-oxobutan-2-yl)amino)-4-methyl-1-oxopentan-2-yl)phosphonic acid] | < 10 | > 100 | 5.1 ± 0.2 | 13 ± 1 | 7 ± 9 | IC50 (ADAM17 (TACE)): > 100 µM; IC50 (Cytotoxicity HepG2; HepG2): > 100 µM; IC50 (Cytotoxicity HEK293; HEK293): > 100 µM; IC50 (Cytotoxicity A549; A549): > 100 µM
CC(C)CC(C(=O)N[C@H](c1nc2cc(Oc3ccccc3)ccc2[nH]1)C(C)C)P(=O)(O)O (mixture of isomers) [Example 172, (4-Methyl-1-(((S)-2-methyl-1-(5-phenoxy-1H-benzo[d]imidazol-2-yl)propyl)amino)-1-oxopentan-2-yl)phosphonic acid] | 18 ± 5 | > 100 |  | 18 ± 4 | 12 ± 2 | inhibition at 100 µM (ADAM17 (TACE); at 100 μM): < 10%; IC50 (Cytotoxicity HepG2; HepG2): > 100 µM; IC50 (Cytotoxicity HEK293; HEK293): > 100 µM; IC50 (LasB; IC50 against LasB (Table 16), heteropentacycles and benzannulated heteropentacycles): 12000 ± 1000 nM; IC50 (Cytotoxicity A549; A549): > 100 µM
O=C(Nc1ccc(O)cc1)C(S)Cc1ccccc1 (centres unmarked) [Example 5] |  |  | 590 ± 40 |  |  | IC50 (ADAM17 (TACE)): 2.3 ± 1.4 µM; IC50 (Cytotoxicity HepG2; HepG2): > 100 µM; IC50 (Cytotoxicity HEK293; HEK293): > 100 µM; IC50 (Cytotoxicity A549; A549): > 100 µM; inhibition at 100 µM (MMP-8): 19 ± 4%
Cc1ccc(NC(=O)C(S)Cc2ccccc2)cc1 (centres unmarked) [Example 8] |  |  |  |  |  | IC50 (ADAM17 (TACE)): 4.8 ± 1.2 µM; IC50 (LasB; read-out: IC50 against LasB): 480 ± 40 nM
CC(C)CC(C(=O)Nc1ccc(-c2ccc(Cl)cc2)nc1)P(=O)(O)O (centres unmarked) [Example 92] | < 10 | > 100 |  | < 10 | 18 | IC50 (Cytotoxicity HepG2; HepG2 cells): > 100 µM; IC50 (Cytotoxicity HEK293; HEK293 cells): > 100 µM; IC50 (Cytotoxicity A549; A549 cells): > 100 µM
CC(C)CC(C(=O)Nc1ccc(NS(=O)(=O)c2ccc(Cl)c(Cl)c2)cc1)P(=O)(O)O (centres unmarked) [Example 108, (1-((4-((3,4-Dichlorophenyl)sulfonamido)phenyl)amino)-4-methyl-1-oxopentan-2-yl)phosphonic acid] | < 10 | > 100 |  | 12 ± 1 | < 10 | IC50 (Cytotoxicity HepG2; HepG2 cells): > 100 µM; IC50 (Cytotoxicity HEK293; HEK293 cells): > 100 µM; IC50 (Cytotoxicity A549; A549 cells): > 100 µM
CC(C)CC(C(=O)N[C@H](C(=O)Nc1ccc(Cl)c(Cl)c1)C1CCCCC1)P(=O)(O)O (some centres unmarked) [Example 156] |  |  | 12 |  |  | 
CC(C)CC(C(=O)N[C@@H](Cc1ccccc1)C(=O)Nc1ccc(Cl)c(Cl)c1)P(=O)(O)O (some centres unmarked) [Example 157] |  |  | 427 ± 48 |  |  | 
CC(C)CC(C(=O)N[C@@H](CC1CCCCC1)C(=O)Nc1ccc(Cl)c(Cl)c1)P(=O)(O)O (some centres unmarked) [Example 158] |  |  | 242 ± 21 |  |  | 
CC(C)C[C@@H](C(=O)N[C@@H](Cc1cccnc1)C(=O)Nc1ccc(Cl)c(Cl)c1)P(=O)(O)O [Example 159] |  |  | 1500 ± 60 |  |  | 
CC(C)C[C@H](C(=O)N[C@@H](Cc1cccnc1)C(=O)Nc1ccc(Cl)c(Cl)c1)P(=O)(O)O [Example 160] |  |  | 573 ± 16 |  |  | 
CC(C)C[C@@H](C(=O)N[C@@H](Cc1ccccn1)C(=O)Nc1ccc(Cl)c(Cl)c1)P(=O)(O)O [Example 161] |  |  | 1360 ± 50 |  |  | 
CC(C)C[C@H](C(=O)N[C@@H](Cc1ccccn1)C(=O)Nc1ccc(Cl)c(Cl)c1)P(=O)(O)O [Example 162] |  |  | 416 ± 23 |  |  | 
